Experimental data taken from US20250205344A1, “2,4-DIOXOTETRAHYDROPYRIMIDINYL DERATIVES AS DEGRONS IN PROTACS” (GLAXOSMITHKLINE INTELLECTUAL PROPERTY DEVELOPMENT LIMITED, priority 2022, published 2025).
Where a name gives a salt, the structure may show the parent alone.

Molecular target: T1, Androgen Receptor (Homo sapiens, UniProt P10275, T878A)
T1 construct: the AR gene was modified, using CRISPR/Cas9 editing, so the expressed AR protein included an 11 amino acid HiBiT tag; endogenous in cells; host or cells: clonal LnCaP-derived line, AR gene edited by CRISPR/Cas9
T1 sequence (P10275 whole entry T878A): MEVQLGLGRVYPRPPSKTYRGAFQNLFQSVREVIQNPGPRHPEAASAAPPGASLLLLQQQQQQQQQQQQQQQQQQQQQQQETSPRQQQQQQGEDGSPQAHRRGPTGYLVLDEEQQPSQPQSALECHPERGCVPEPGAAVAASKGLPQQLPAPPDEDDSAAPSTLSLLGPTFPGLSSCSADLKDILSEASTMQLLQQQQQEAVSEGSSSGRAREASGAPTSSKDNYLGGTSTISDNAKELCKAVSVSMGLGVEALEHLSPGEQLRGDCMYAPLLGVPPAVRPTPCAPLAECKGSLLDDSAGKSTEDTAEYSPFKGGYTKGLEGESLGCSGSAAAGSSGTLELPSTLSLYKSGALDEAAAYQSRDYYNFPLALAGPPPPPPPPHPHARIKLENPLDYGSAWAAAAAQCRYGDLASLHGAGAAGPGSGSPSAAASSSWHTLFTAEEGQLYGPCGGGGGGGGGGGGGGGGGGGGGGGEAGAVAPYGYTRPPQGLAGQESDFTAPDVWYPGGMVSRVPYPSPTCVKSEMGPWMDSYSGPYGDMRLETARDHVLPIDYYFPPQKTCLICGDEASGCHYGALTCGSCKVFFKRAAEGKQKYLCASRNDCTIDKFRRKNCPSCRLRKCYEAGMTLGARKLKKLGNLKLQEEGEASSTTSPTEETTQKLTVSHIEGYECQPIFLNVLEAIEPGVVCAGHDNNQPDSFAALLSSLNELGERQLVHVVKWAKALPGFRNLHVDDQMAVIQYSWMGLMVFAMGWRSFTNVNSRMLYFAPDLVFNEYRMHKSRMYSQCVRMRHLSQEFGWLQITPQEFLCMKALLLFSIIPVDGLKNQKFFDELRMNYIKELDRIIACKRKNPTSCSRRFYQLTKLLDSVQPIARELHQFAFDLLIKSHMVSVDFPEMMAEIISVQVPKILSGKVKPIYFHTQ
T1 sequence (Q96SW2 whole entry partner): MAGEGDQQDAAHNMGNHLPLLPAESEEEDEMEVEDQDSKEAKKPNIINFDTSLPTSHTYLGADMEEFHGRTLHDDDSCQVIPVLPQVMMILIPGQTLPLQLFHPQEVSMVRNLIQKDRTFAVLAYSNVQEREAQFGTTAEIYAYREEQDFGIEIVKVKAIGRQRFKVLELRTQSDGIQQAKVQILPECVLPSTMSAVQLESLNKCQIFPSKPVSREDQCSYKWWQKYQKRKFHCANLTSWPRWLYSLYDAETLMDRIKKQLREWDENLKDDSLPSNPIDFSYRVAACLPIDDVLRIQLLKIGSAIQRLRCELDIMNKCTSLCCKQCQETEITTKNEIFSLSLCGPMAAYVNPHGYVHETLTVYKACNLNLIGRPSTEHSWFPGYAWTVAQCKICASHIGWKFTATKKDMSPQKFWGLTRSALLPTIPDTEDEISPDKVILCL
T1 sequence (Q16531 whole entry partner): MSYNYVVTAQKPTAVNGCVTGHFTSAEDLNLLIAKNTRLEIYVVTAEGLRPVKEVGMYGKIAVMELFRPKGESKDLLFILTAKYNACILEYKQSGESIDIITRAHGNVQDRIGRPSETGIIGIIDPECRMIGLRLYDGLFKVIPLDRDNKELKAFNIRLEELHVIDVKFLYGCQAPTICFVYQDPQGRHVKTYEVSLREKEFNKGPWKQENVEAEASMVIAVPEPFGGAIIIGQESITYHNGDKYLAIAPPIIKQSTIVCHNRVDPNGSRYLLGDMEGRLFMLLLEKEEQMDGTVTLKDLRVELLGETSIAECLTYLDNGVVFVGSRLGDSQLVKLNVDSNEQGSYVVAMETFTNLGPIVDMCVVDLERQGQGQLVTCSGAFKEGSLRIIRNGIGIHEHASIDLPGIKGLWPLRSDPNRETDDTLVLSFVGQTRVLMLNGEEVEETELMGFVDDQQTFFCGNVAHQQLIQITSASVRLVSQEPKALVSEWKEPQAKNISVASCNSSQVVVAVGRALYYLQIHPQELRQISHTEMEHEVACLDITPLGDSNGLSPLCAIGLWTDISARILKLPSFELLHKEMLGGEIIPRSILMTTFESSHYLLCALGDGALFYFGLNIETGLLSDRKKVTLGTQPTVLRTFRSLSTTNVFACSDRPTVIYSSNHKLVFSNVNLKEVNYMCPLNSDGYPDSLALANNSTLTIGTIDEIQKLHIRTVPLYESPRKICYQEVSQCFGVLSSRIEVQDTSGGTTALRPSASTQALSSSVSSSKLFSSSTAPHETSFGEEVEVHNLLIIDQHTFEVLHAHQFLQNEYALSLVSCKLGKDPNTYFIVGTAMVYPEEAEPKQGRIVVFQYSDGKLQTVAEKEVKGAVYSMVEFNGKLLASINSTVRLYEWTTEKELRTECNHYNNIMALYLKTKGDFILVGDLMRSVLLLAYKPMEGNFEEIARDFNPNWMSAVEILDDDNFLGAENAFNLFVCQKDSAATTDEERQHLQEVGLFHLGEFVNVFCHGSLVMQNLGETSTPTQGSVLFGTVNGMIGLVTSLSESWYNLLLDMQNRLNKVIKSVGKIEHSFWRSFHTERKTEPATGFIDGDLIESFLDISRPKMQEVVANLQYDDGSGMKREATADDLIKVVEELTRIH
Experiment: Androgen Receptor Degradation Assay (Nano-Glo HiBiT)
Assay type: cell-based
Settings: LNCaP, 18 h, HiBiT-tagged AR in human LnCaP cells, read-out: mean asymptote max
Procedure, shortened: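 LnCaP cells with CRISPR-knocked-in N-terminal HiBiT-tagged AR (10,000/well) treated 18 h at 37 °C with PROTACs over 11 threefold concentrations; lytic HiBiT luminescence normalised to DMSO (0%) and cell-free (100%) controls. Relative DC50 = 4-parameter fit inflection; absolute DC50 = 50% degradation interpolation; Dmax = maximum observed degradation.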

SMILES	Dmax [%]
N#Cc1ccc(O[C@H]2CC[C@H](NC(=O)c3ccc(OC4CN(C(=O)CN5CCC(n6ccc7c(N8CCC(=O)NC8=O)cccc76)CC5)C4)nn3)CC2)cc1Cl [EAR178, N-((1r,4r)-4-(3-Chloro-4-cyanophenoxy)cyclohexyl)-6-((1-(2-(4-(4-(2,4-dioxotetrahydropyrimidin-1(2H)-yl)-1H-indol-1-yl)piperidin-1-yl)acetyl)azetidin-3-yl)oxy)pyridazine-3-carboxamide]	≥ 50
N#Cc1ccc(O[C@H]2CC[C@H](NC(=O)c3ccc(N4CCC(CN5CCC(CCn6ccc7c(N8CCC(=O)NC8=O)cccc76)CC5)CC4)nn3)CC2)cc1Cl [EAR179, N-((1r,4r)-4-(3-chloro-4-cyanophenoxy)cyclohexyl)-6-(4-((4-(2-(4-(2,4-dioxotetrahydropyrimidin-1(2H)-yl)-1H-indol-1-yl)ethyl)piperidin-1-yl)methyl)piperidin-1-yl)pyridazine-3-carboxamide hydrochloride]	≥ 50
N#Cc1ccc(O[C@H]2CC[C@H](NC(=O)c3ccc(CN4CCC(n5ccc6c(N7CCC(=O)NC7=O)cccc65)CC4)cc3)CC2)cc1Cl [EAR180, N-((1r,4r)-4-(3-Chloro-4-cyanophenoxy)cyclohexyl)-4-((4-(4-(2,4-dioxotetrahydropyrimidin-1(2H)-yl)-1H-indol-1-yl)piperidin-1-yl)methyl)benzamide]	≥ 50
N#Cc1ccc(O[C@H]2CC[C@H](NC(=O)c3cnc(N4CCC(CN5CCC(n6ccc7c(N8CCC(=O)NC8=O)nccc76)CC5)CC4)cn3)CC2)cc1C(F)(F)F [EAR181, N-((1r,4r)-4-(4-Cyano-3-(trifluoromethyl)phenoxy)cyclohexyl)-5-(4-((4-(4-(2,4-dioxotetrahydropyrimidin-1(2H)-yl)-1H-pyrrolo[3,2-c]pyridin-1-yl)piperidin-1-yl)methyl)piperidin-1-yl)pyrazine-2-carboxamide]	≥ 50
N#Cc1ccc(O[C@H]2CC[C@H](NC(=O)c3cnc(N4CCC(CN5CCC(n6ccc7c(N8CCC(=O)NC8=O)nccc76)CC5)CC4)cn3)CC2)cc1Cl [EAR182, N-((1r,4r)-4-(3-Chloro-4-cyanophenoxy)cyclohexyl)-5-(4-((4-(4-(2,4-dioxotetrahydropyrimidin-1(2H)-yl)-1H-pyrrolo[3,2-c]pyridin-1-yl)piperidin-1-yl)methyl)piperidin-1-yl)pyrazine-2-carboxamide]	≥ 50
N#Cc1ccc(O[C@H]2CC[C@H](NC(=O)c3ccc(N4CCC(CN5CCC[C@@H](n6ccc7c(N8CCC(=O)NC8=O)cccc76)C5)CC4)nn3)CC2)cc1Cl [EAR184, N-((1r,4r)-4-(3-Chloro-4-cyanophenoxy)cyclohexyl)-6-(4-(((S)-3-(4-(2,4-dioxotetrahydropyrimidin-1(2H)-yl)-1H-indol-1-yl)piperidin-1-yl)methyl)piperidin-1-yl)pyridazine-3-carboxamide hydrochloride]	≥ 50
N#Cc1ccc(O[C@H]2CC[C@H](NC(=O)c3ccc(N4CCC(CN5CCC6(CC5)CC(n5ccc7c(N8CCC(=O)NC8=O)cccc75)C6)CC4)nn3)CC2)cc1Cl [EAR185, N-((1r,4r)-4-(3-Chloro-4-cyanophenoxy)cyclohexyl)-6-(4-((2-(4-(2,4-dioxotetrahydropyrimidin-1(2H)-yl)-1H-indol-1-yl)-7-azaspiro[3.5]nonan-7-yl)methyl)piperidin-1-yl)pyridazine-3-carboxamide hydrochloride]	≥ 50
N#Cc1ccc(O[C@H]2CC[C@H](NC(=O)c3ccc(N4CCC(CN5CCC(n6ccc7c(N8CCC(=O)NC8=O)cccc76)CC5)CC4)cn3)CC2)cc1Cl [EAR186, N-((1r,4r)-4-(3-Chloro-4-cyanophenoxy)cyclohexyl)-5-(4-((4-(4-(2,4-dioxotetrahydropyrimidin-1(2H)-yl)-1H-indol-1-yl)piperidin-1-yl)methyl)piperidin-1-yl)picolinamide]	≥ 50
